US20150275254A1, “ENZYME LOADING, CELLULOSE HYDROLYSIS, AND INHIBITION OF CELLOBIOHYDROLASES USING LIQUID HOT WATER PRETREATMENT” (PURDUE RESEARCH FOUNDATION, priority 2014, published 2015)

Columns and labels:
Cellic Ctec2 = test: Enzymatic hydrolysis of LHW pretreated hardwood (severity log Ro=12.51) at different hydrolysis conditions (FIG. 6); type: biochemical, Trichoderma reesei; details: 200 mM NaCl at pH 4.8; 5 FPU (8 mg) Ctec2/g glucan, 72 hrs
Procedure: In this work, the lignocellulosic substrate was enzymatically hydrolyzed in order to study how the non-productive adsorption affected the enzymatic hydrolysis efficiency. The glucose yield of LHW pretreated hardwood containing 57.9% glucan and 40.3% lignin was measured for a low enzyme loading amount of 5 FPU (8 mg) Ctec2/g glucan at given conditions (FIG. 6). […] This might be due to the decreased cellulase activity at pH 5.5 as shown in microcrystalline cellulose (Avicel) hydrolysis. The overall decrease in T. reesei cellulase cocktail (Ctec2) adsorption onto lignins at elevated pHs was in agreement with the results by Lou et al. (2013). The reduced nonproductive adsorption led to the enhanced glucose yield more than twofold when the dilute acid or sulfite pretreated softwood was hydrolyzed with higher amount (10 FPU/g glucan) of cellulase (Lou et al., 2013).

[1] = molecular target: β-glucosidase from T. reesei; details: cited from earlier work
[2] = molecular target: T1, β-glucosidase from A. niger (Aspergillus niger, UniProt A2RAL4); details: cited from earlier work
T1 sequence (A2RAL4 20-860): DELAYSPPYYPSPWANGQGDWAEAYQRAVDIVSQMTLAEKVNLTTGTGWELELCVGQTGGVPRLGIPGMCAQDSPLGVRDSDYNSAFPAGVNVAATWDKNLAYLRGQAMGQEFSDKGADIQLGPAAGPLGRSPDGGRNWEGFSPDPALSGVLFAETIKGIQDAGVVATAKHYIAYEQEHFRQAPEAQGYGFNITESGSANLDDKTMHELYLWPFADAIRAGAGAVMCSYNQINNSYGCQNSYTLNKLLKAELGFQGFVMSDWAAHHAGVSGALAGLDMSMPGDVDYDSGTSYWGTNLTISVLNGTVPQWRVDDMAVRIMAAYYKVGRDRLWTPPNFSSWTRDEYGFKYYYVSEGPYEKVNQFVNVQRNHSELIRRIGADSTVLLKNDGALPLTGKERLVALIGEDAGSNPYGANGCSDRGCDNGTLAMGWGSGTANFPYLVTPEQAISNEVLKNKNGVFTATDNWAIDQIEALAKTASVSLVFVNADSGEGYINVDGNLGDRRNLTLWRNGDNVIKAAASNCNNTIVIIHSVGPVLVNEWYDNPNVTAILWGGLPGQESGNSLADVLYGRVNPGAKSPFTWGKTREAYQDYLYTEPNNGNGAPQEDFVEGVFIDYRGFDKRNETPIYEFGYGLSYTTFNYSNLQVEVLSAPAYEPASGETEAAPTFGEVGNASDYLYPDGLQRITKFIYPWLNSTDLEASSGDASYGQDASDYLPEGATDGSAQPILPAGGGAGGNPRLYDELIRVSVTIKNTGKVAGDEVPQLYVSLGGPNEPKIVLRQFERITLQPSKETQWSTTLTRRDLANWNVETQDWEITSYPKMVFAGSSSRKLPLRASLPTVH

[3] = adapted from literature; cited from earlier work

[Cl-].[Na+] [NaCl]
effect on glucose yield (Cellic Ctec2): did not affect the glucose yield

O=C(O)c1cc(O)c(O)c(O)c1 [gallic acid]
k, deactivation rate constant [1]: 0.046 h⁻¹
k, deactivation rate constant [2]: 0.006 h⁻¹

O=C(OC[C@H]1O[C@@H](OC(=O)c2cc(O)c(O)c(OC(=O)c3cc(O)c(O)c(O)c3)c2)[C@H](OC(=O)c2cc(O)c(O)c(OC(=O)c3cc(O)c(O)c(O)c3)c2)[C@@H](OC(=O)c2cc(O)c(O)c(OC(=O)c3cc(O)c(O)c(O)c3)c2)[C@@H]1OC(=O)c1cc(O)c(O)c(OC(=O)c2cc(O)c(O)c(O)c2)c1)c1cc(O)c(O)c(OC(=O)c2cc(O)c(O)c(O)c2)c1 [tannic acid]
k, deactivation rate constant [1]: 0.068 h⁻¹
k, deactivation rate constant [2]: 0.045 h⁻¹

B1: EGI: T. reesei enzyme, gene cel7b, GH7 (protein, UniProt P07981 23-459, looked up)
Endoglucanase EG-1: QQPGTSTPEVHPKLTTYKCTKSGGCVAQDTSVVLDWNYRWMHDANYNSCTVNGGVNTTLCPDEATCGKNCFIEGVDYAASGVTTSGSSLTMNQYMPSSSGGYSSVSPRLYLLDSDGEYVMLKLNGQELSFDVDLSALPCGENGSLYLSQMDENGGANQYNTAGANYGSGYCDAQCPVQTWRNGTLNTSHQGFCCNEMDILEGNSRANALTPHSCTATACDSAGCGFNPYGSGYKSYYGPGDTVDTSKTFTIITQFNTDNGSPSGNLVSITRKYQQNGVDIPSAQPGGDTISSCPSASAYGGLATMGKALSSGMVLVFSIWNDNSQYMNWLDSGNAGPCSSTEGNPSNILANNPNTHVVFSNIRWGDIGSTTNSTAPPPPPASSTTFSTTRRSSTTSSSPSCTQTHWGQCGGIGYSGCKTCTSGTTCQYSNDYYSQCL
Experimental pI [3]: (3.9-4.5)

B2: CBHI: T. reesei enzyme, gene cel7a, GH7 (protein, UniProt P62694 18-513, looked up)
Exoglucanase 1: QSACTLQSETHPPLTWQKCSSGGTCTQQTGSVVIDANWRWTHATNSSTNCYDGNTWSSTLCPDNETCAKNCCLDGAAYASTYGVTTSGNSLSIGFVTQSAQKNVGARLYLMASDTTYQEFTLLGNEFSFDVDVSQLPCGLNGALYFVSMDADGGVSKYPTNTAGAKYGTGYCDSQCPRDLKFINGQANVEGWEPSSNNANTGIGGHGSCCSEMDIWEANSISEALTPHPCTTVGQEICEGDGCGGTYSDNRYGGTCDPDGCDWNPYRLGNTSFYGPGSSFTLDTTKKLTVVTQFETSGAINRYYVQNGVTFQQPNAELGSYSGNELNDDYCTAEEAEFGGSSFSDKGGLTQFKKATSGGMVLVMSLWDDYYANMLWLDSTYPTNETSSTPGAVRGSCSTSSGVPAQVESQSPNAKVTFSNIKFGPIGSTGNPSGGNPPGGNRGTTTTRRPATTTGSSPGPTQSHYGQCGGIGYSGPTVCASGTTCQVLNPYYSQCL
Experimental pI [3]: (3.6-3.9)

B3: CBHII: T. reesei enzyme, gene cel6a, GH6 (protein, UniProt P07987 25-471, looked up)
Exoglucanase 2: QACSSVWGQCGGQNWSGPTCCASGSTCVYSNDYYSQCLPGAASSSSSTRAASTTSRVSPTTSRSSSATPPPGSTTTRVPPVGSGTATYSGNPFVGVTPWANAYYASEVSSLAIPSLTGAMATAAAAVAKVPSFMWLDTLDKTPLMEQTLADIRTANKNGGNYAGQFVVYDLPDRDCAALASNGEYSIADGGVAKYKNYIDTIRQIVVEYSDIRTLLVIEPDSLANLVTNLGTPKCANAQSAYLECINYAVTQLNLPNVAMYLDAGHAGWLGWPANQDPAAQLFANVYKNASSPRALRGLATNVANYNGWNITSPPSYTQGNAVYNEKLYIHAIGPLLANHGWSNAFFITDQGRSGKQPTGQQQWGDWCNVIGTGFGIRPSANTGDSLLDSFVWVKPGGECDGTSDSSAPRFDSHCALPDALQPAPQAGAWFQAYFVQLLTNANPSFL
Experimental pI [3]: (5.2-5.9)

B4: EGII: T. reesei enzyme, gene cel5a, GH5 (protein, UniProt P07982 22-418, looked up)
Endoglucanase EG-II: QQTVWGQCGGIGWSGPTNCAPGSACSTLNPYYAQCIPGATTITTSTRPPSGPTTTTRATSTSSSTPPTSSGVRFAGVNIAGFDFGCTTDGTCVTSKVYPPLKNFTGSNNYPDGIGQMQHFVNEDGMTIFRLPVGWQYLVNNNLGGNLDSTSISKYDQLVQGCLSLGAYCIVDIHNYARWNGGIIGQGGPTNAQFTSLWSQLASKYASQSRVWFGIMNEPHDVNINTWAATVQEVVTAIRNAGATSQFISLPGNDWQSAGAFISDGSAAALSQVTNPDGSTTNLIFDVHKYLDSDNSGTHAECTTNNIDGAFSPLATWLRQNNRQAILTETGGGNVQSCIQDMCQQIQYLNQNSDVYLGYVGWGAGSFDSTYVLTETPTSSGNSWTDTSLVSSCLARK
Experimental pI [3]: (4.2-5.5)
